We go through 27 compounds from patent publication US20240067631A1, “PYRAZOLE DERIVATIVES USEFUL AS NAMPT MODULATORS” (Cytokinetics, Inc., priority 2020, published 2024).

The target in the test is human NAMPT (Homo sapiens (Human), UniProt P43490). Kind of test: Human recombinant enzyme assay (NMN fluorescence biochemical assay). To be noted: 6 nM human NAMPT, 60 min; for AC1.4 Human: concentration of compound that generates 40% higher activity over basal; for EC50: concentration that gives half-maximal activation. As for the experimental part: Compounds described herein were assayed for their ability to stimulate the synthesis of nicotinamide mononucleotide (NMN) by the enzyme NAMPT. The human recombinant enzyme assay measures the activation of the enzyme activity by compounds using recombinant enzyme and substrates in a buffered cell-free system. The assay conditions closely mimic cellular environments. Dose responses were measured using an assay to detect the formation of nicotinamide mono-nucleotide. All experiments were performed in the 384-well format. Generally, 0.5 μL of DMSO containing varying concentrations of the test compound was mixed with 10 μL of the enzyme reagent solution. Enzyme reactions were initiated with the addition of 10 μL of a solution containing the substrates. The final assay conditions were as follows: 6 nM human NAMPT, 2.5 mM ATP, […] in 50 mM HEPES, pH 7.2, 1 mM DTT, 1 mM CHAPS 50 mM NaCl, 100 mM MgCl2. Following an incubation of 60 min at ambient temperature, 10 μL of 20% acetophenone in DMSO was added, followed by 10 μL of 2 M KOH and 40 μL of formic acid. The plates were read for fluorescence (Excitation/Emission=355 nm/460 nm) using an EnVision plate reader after 40 mins of incubation at ambient temperature. The potency measurements for compounds, are quantified and represented as AC1.4 (the concentration of compounds that generates 40% higher activity over basal) and EC50 (concentration of the compound that gives half-maximal activation).
Sequence of human NAMPT (P43490 whole entry): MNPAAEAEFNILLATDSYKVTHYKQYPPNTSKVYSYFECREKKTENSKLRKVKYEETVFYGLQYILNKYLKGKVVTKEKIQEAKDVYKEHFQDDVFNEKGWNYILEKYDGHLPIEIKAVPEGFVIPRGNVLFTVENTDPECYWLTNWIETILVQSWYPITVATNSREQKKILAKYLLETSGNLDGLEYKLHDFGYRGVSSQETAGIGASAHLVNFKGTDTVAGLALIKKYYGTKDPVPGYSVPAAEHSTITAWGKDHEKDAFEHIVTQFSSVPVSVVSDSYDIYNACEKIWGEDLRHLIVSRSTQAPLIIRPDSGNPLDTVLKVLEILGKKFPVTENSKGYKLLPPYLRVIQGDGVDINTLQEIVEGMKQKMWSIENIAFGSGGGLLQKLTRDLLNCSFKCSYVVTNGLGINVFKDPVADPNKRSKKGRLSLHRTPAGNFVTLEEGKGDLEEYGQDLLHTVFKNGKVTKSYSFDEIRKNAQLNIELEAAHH

For the compound `Cc1nc(C(=O)Nc2ccccc2)nc(NCCc2cn[nH]c2)c1C` [Compound 140, 4-((2-(1H-pyrazol-4-yl)ethyl)amino)-5,6-dimethyl-N-phenylpyrimidine-2-carboxamide], the “AC1.4 Human” value stood at 4.0885 µM and the EC50 (commonly the concentration giving half of the maximal effect) was determined as 18.4 µM. For `Cc1nc(C(=O)N[C@@H](C)c2ccccc2)nc(NCCc2cn[nH]c2)c1C` [Compound 59, (S)-4-((2-(1H-pyrazol-4-yl)ethyl)amino)-5,6-dimethyl-N-(1-phenylethyl)pyrimidine-2-carboxamide], in that order: 0.4045 µM and 3.08 µM. In the case of `Cc1nc(C(=O)N2CCC2c2cccc(F)c2)nc(NCCc2cn[nH]c2)c1C` (centres unmarked) [Compound 115, (4-((2-(1H-pyrazol-4-yl)ethyl)amino)-5,6-dimethylpyrimidin-2-yl)(2-(3-fluorophenyl)azetidin-1-yl)methanone], the “AC1.4 Human” value came to 2.136 µM and the EC50 came out at 10.7 µM. In the same order, the values of `Cc1nc(C(=O)Nc2cc(F)cc(F)c2)nc(NCCc2cn[nH]c2)c1C` [Compound 117, 4-((2-(1H-pyrazol-4-yl)ethyl)amino)-N-(3,5-difluorophenyl)-5,6-dimethylpyrimidine-2-carboxamide] are 2.2385 µM and 47.6 µM. For `Cc1nc(C(=O)NC(C)(C)c2ccc(F)cc2)nc(NCCc2cn[nH]c2)c1C` [Compound 83, 4-((2-(1H-pyrazol-4-yl)ethyl)amino)-N-(2-(4-fluorophenyl)propan-2-yl)-5,6-dimethylpyrimidine-2-carboxamide], in that order: 0.9695 µM and 14.5 µM.

`Cc1nc(C(=O)N[C@@H](C)c2cccs2)nc(NCCc2cn[nH]c2)c1C` [Compound 8, (S)-4-((2-(1H-pyrazol-4-yl)ethyl)amino)-5,6-dimethyl-N-(1-(thiophen-2-yl)ethyl)pyrimidine-2-carboxamide]: the “AC1.4 Human” value was 0.0325 µM and the EC50 was determined as 0.182 µM. For `Cc1nc(C(=O)NC2(c3ccccn3)CCC2)nc(NCCc2cn[nH]c2)c1C` [Compound 145, 4-((2-(1H-pyrazol-4-yl)ethyl)amino)-5,6-dimethyl-N-(1-(pyridin-2-yl)cyclobutyl)pyrimidine-2-carboxamide], in that order: 4.9555 µM and 22.4 µM. For `Cc1nc(C(=O)N2CC3(C2)C(=O)Nc2ccccc23)nc(NCCc2cn[nH]c2)c1C` [Compound 142, 1-(4-((2-(1H-pyrazol-4-yl)ethyl)amino)-5,6-dimethylpyrimidine-2-carbonyl)spiro[azetidine-3,3′-indolin]-2′-one], in that order: 4.3845 µM and 31.8 µM. Turning to `Cc1nc(C(=O)N[C@H](C)c2ncccc2F)nc(NCCc2cn[nH]c2)c1C` [Compound 56, (R)-4-((2-(1H-pyrazol-4-yl)ethyl)amino)-N-(1-(3-fluoropyridin-2-yl)ethyl)-5,6-dimethylpyrimidine-2-carboxamide], the “AC1.4 Human” value is 0.439 µM and the EC50 was 1.37 µM. In the same order, the values of `Cc1nc(C(=O)N2CC(C(F)(F)F)C2)nc(NCCc2cn[nH]c2)c1C` [Compound 100, (4-((2-(1H-pyrazol-4-yl)ethyl)amino)-5,6-dimethylpyrimidin-2-yl)(3-(trifluoromethyl)azetidin-1-yl)methanone] are 6.3085 µM and 40.2 µM. Consider `Cc1nc(C(=O)NC(C)c2ccncc2F)nc(NCCc2cn[nH]c2)c1C` (centres unmarked) [Compound 110, 4-((2-(1H-pyrazol-4-yl)ethyl)amino)-N-(1-(3-fluoropyridin-4-yl)ethyl)-5,6-dimethylpyrimidine-2-carboxamide], for which the “AC1.4 Human” value was 1.9815 µM and the 50% effective concentration (EC50) was 16.2 µM. With `Cc1nc(C(=O)N[C@H](C)c2ccc(F)cn2)nc(NCCc2cn[nH]c2)c1C` [Compound 118, (R)-4-((2-(1H-pyrazol-4-yl)ethyl)amino)-N-(1-(5-fluoropyridin-2-yl)ethyl)-5,6-dimethylpyrimidine-2-carboxamide], the “AC1.4 Human” value was 2.384 µM and the EC50 amounted to 11.8 µM. Take `Cc1nc(C(=O)N2CCC[C@@H]2c2cccc(F)c2)nc(NCCc2cn[nH]c2)c1F` [Compound 150, (R)-(4-((2-(1H-pyrazol-4-yl)ethyl)amino)-5-fluoro-6-methylpyrimidin-2-yl)(2-(3-fluorophenyl)pyrrolidin-1-yl)methanone]: the “AC1.4 Human” value came to 0.12 µM. Turning to `Cc1nc(C(=O)NC2(c3ccccc3)COC2)nc(NCCc2cn[nH]c2)c1C` [Compound 114, 4-((2-(1H-pyrazol-4-yl)ethyl)amino)-5,6-dimethyl-N-(3-phenyloxetan-3-yl)pyrimidine-2-carboxamide], the “AC1.4 Human” value was determined as 2.1125 µM and the concentration for a half-maximal effect (EC50) was 23.1 µM. With `Cc1nc(C(=O)NC2(Cc3ccc(F)cc3Cl)CCOCC2)nc(NCCc2cn[nH]c2)c1C` [Compound 85, 4-((2-(1H-pyrazol-4-yl)ethyl)amino)-N-(4-(2-chloro-4-fluorobenzyl)tetrahydro-2H-pyran-4-yl)-5,6-dimethylpyrimidine-2-carboxamide], the “AC1.4 Human” value is 1.072 µM and the concentration giving a half-maximal response (EC50) was 8.35 µM. As for `Cc1nc(C(=O)N[C@H](C)c2ccccn2)nc(NCCc2cn[nH]c2)c1C` [Compound 47, (R)-4-((2-(1H-pyrazol-4-yl)ethyl)amino)-5,6-dimethyl-N-(1-(pyridin-2-yl)ethyl)pyrimidine-2-carboxamide], the “AC1.4 Human” value came out at 0.2915 µM and the EC50 came out at 2 µM. In the same order, the values of `Cc1nc(C(=O)NCc2n[nH]c3ccccc23)nc(NCCc2cn[nH]c2)c1C` [Compound 105, N-((1H-indazol-3-yl)methyl)-4-((2-(1H-pyrazol-4-yl)ethyl)amino)-5,6-dimethylpyrimidine-2-carboxamide] are 1.669 µM and 2.52 µM. For `Cc1nc(C(=O)N2CCC[C@@H]2c2ccccc2)nc(NCCc2cn[nH]c2)c1C` [Compound 38, (R)-(4-((2-(1H-pyrazol-4-yl)ethyl)amino)-5,6-dimethylpyrimidin-2-yl)(2-phenylpyrrolidin-1-yl)methanone], in that order: 0.1635 µM and 3.83 µM. For `COC[C@@H](NC(=O)c1nc(C)c(C)c(NCCc2cn[nH]c2)n1)c1cccc(F)c1` [Compound 82, (S)-4-((2-(1H-pyrazol-4-yl)ethyl)amino)-N-(1-(3-fluorophenyl)-2-methoxyethyl)-5,6-dimethylpyrimidine-2-carboxamide], in that order: 0.966 µM and 3.99 µM.

Take `Cc1nc(C(=O)NCc2cccs2)nc(NCCc2cn[nH]c2)c1C` [Compound 19, 4-((2-(1H-pyrazol-4-yl)ethyl)amino)-5,6-dimethyl-N-(thiophen-2-ylmethyl)pyrimidine-2-carboxamide]: the “AC1.4 Human” value came to 0.075 µM and the EC50 came out at 0.499 µM. For `Cc1nc(C(=O)N2CCCC2Cc2ccccc2)nc(NCCc2cn[nH]c2)c1C` (centres unmarked) [Compound 71, (4-((2-(1H-pyrazol-4-yl)ethyl)amino)-5,6-dimethylpyrimidin-2-yl)(2-benzylpyrrolidin-1-yl)methanone], in that order: 0.5835 µM and 6.07 µM. For `Cc1nc(C(=O)NCc2cccc(F)c2)nc(NCCc2cn[nH]c2)c1C` [Compound 32, 4-((2-(1H-pyrazol-4-yl)ethyl)amino)-N-(3-fluorobenzyl)-5,6-dimethylpyrimidine-2-carboxamide], in that order: 0.193 µM and 0.929 µM. As to `Cc1nc(C(=O)NCCc2cncc(F)c2)nc(NCCc2cn[nH]c2)c1C` [Compound 129, 4-((2-(1H-pyrazol-4-yl)ethyl)amino)-N-(2-(5-fluoropyridin-3-yl)ethyl)-5,6-dimethylpyrimidine-2-carboxamide], the “AC1.4 Human” value is 3.249 µM and the EC50 came out at 21.3 µM.

With `Cc1nc(C(=O)N2CCC[C@@H]2c2ccc(F)cc2)nc(NCCc2cn[nH]c2)c1C` [Compound 86, (R)-(4-((2-(1H-pyrazol-4-yl)ethyl)amino)-5,6-dimethylpyrimidin-2-yl)(2-(4-flurophenyl)pyrrolidin-1-yl)methanone], the “AC1.4 Human” value turned out to be 1.1115 µM and the EC50 was 8.04 µM.

For the compound `Cc1nc(C(=O)N2CC(F)(F)C2)nc(NCCc2cn[nH]c2)c1C` [Compound 91, (4-((2-(1H-pyrazol-4-yl)ethyl)amino)-5,6-dimethylpyrimidin-2-yl)(3,3-difluoroazetidin-1-yl)methanone], the “AC1.4 Human” value turned out to be 0.9345 µM and the EC50 amounted to 7.76 µM. In the same order, the values of `Cc1nc(C(=O)N2CCOC[C@@H]2Cc2ccccc2)nc(NCCc2cn[nH]c2)c1C` [Compound 72, (S)-(4-((2-(1H-pyrazol-4-yl)ethyl)amino)-5,6-dimethylpyrimidin-2-yl)(3-benzylmorpholino)methanone] are 0.625 µM and 3.53 µM. Take `Cc1nc(C(=O)N2CC(c3ccccc3)C2)nc(NCCc2cn[nH]c2)c1C` [Compound 76, (4-((2-(1H-pyrazol-4-yl)ethyl)amino)-5,6-dimethylpyrimidin-2-yl)(3-phenylazetidin-1-yl)methanone]: the “AC1.4 Human” value amounted to 0.773 µM and the EC50 was 6.83 µM.
